Entries after “also recorded” stand apart in the source; their conditions may differ.
Tested on: Sprague-Dawley rats
Assay: Copulatory activity (sexual behaviour) test in male rats with very short ejaculation latency
Format: in vivo, rat
Conditions: for ejaculation latency (EL) / intromission frequency (IF) / intromission latency (IL) / mount frequency (MF) / mount latency (ML) / postejaculatory interval (PEI): 45 min before test, mean ± SEM (n = 8-10)
Method: The resulting extract was solubilised in Tween 80 (10%) and water and administered to test animals through a gastric probe, in a volume of 5 ml/kg, at different doses, 45 minutes before the in vivo test. Sprague-Dawley rats were used, both males (weighing approx. 220 g) and females (weighing approx. 160 g), from Harlan Italy (Udine, Italy). The animals were housed under controlled temperature and humidity conditions (22±1° C., 60% humidity), with 12 hours inverted light-darkness cycle, with lights on at 7 a.m. Females were ovariectomized and subcutaneously injected with estradiol valerate (500 μg) and progesterone (2 mg) 48 hours after, to induce estrus. Male rats with very short ejaculation latency time were chosen through starting screening consisting of 7 pre-tests [A. Ågmo, Male rat sexual behavior, Brain Research Protocols 1: 203-209, 1997]. The resulting extract according to Example II or rosmarinic acid were solubilised in Tween 80 (10%) and water and administered to animals, by gastric probe, in a volume of 5 ml/kg, at different doses, 45 minutes before carrying out all the in vivo tests. Sexual behaviour was evaluated under quite conditions, with feeble red light, according to the standard procedure [A. Ågmo, Male rat sexual behavior, Brain Research Protocols 1: 203-209, 1997]. The main parameters recorded during the test were: 1) mount latency (ML); 2) intromission latency (IL); 3) ejaculation latency (EL); 4) postejaculatory interval (PEI); 5) mount frequency (MF); 6) intromission frequency (IF).

[1] = rosmarinic acid 10 mg/kg by gastric probe
[2] = rosmarinic acid 20 mg/kg by gastric probe

## O=C(/C=C/c1ccc(O)c(O)c1)O[C@H](Cc1ccc(O)c(O)c1)C(=O)O [Rosmarinic acid, rosmarinic acid]
[1]
  ejaculation latency (EL): 1282.2 ± 90.4 s
  intromission frequency (IF): 19.8 ± 1.2 n°
  intromission latency (IL): 393.9 ± 89.8 s
  mount frequency (MF): 1.6 ± 0.3 n°
  mount latency (ML): 382.4 ± 93.6 s
  postejaculatory interval (PEI): 548.5 ± 45.5 s
[2]
  ejaculation latency (EL): 1493.1 ± 81.9 s
  intromission frequency (IF): 27.3 ± 0.7 n°
  intromission latency (IL): 408.4 ± 48.6 s
  mount frequency (MF): 1.1 ± 0.1 n°
  mount latency (ML): 425.8 ± 83.2 s
  postejaculatory interval (PEI): 602.2 ± 102.4 s
Rosmarinic acid, doses of 10 and 20 mg/kg, same experimental conditions
  activity on copulatory activity / ejaculation latency compared with the extract (in words): equivalent activity to that of the extract; also recorded: same results

— patent publication US7976878B2, “Use of winter savory (Satureja montana) or the extracts thereof for the preparation of medicaments for the treatment of the premature ejaculation” (Indena S.p.A., priority 2004, dated 2011)
